Consider 1 molecule from patent US6017958A, “Method of treating malignant tumors with thyroxine analogues having no significant hormonal activity” (Octamer, Inc., priority 1997, dated 2000).

Where two headings read alike, the source gives them in different places.

In assay [1] the test system is protein phosphatase 2A (E-ras 20 cell nuclear extract). The experiment in a line: Phosphatase activity, E-ras 20 cell nuclear extract. In kind it is cell-based, bovine. The method, then: (§1) Compounds 1-13 were tested for protein phosphatase 2A activation in malignant tumor cell cultures in vitro according to the protocol described in Bauer et al., 1996, "Modification of Growth Related Enzymatic Pathways and Apparent Loss of Tumorigenicity of a Ras-Transformed Bovine Endothelial Cell Line by Treatment with 5-Iodo-6-Amino-1,2-Benzopyrone (INH2 BP)," International J. of Oncology 8:239-252. All other compounds were ineffective.

The test system of assay [2] is microtubule protein (MTP). Put plainly: Microtubule protein (MTP) polymerization optical test. Format: biochemical, bovine or rabbit. The protocol: Preparation of MTP and an optical test for polymerization was adopted from published methods, Gaskin, et al., 1974, "Turbidimetric studies of the in vitro assembly and disassembly of porcine neurotubules", J. Mol. Biol. 89:737-758; Tiwari, et al., 1993, "A pH and temperature-dependent cycling method that doubles the yield of microtubule protein", Anal. Biochem. 215:96-103. Bovine or rabbit brain was homogenized in an equal volume of ice cold buffer containing 100 mM Pipes/K^+ (pH 7.4), 4 mM EGTA, 1 mM MgCl2, 0.5 mM DTT and 0.1 mM PMSF, and centrifuged at 39,000 g for 1 hour at 4° C. To the supernatant, DMSO (8% final concentration) and GTP (1 mM final concentration) were added, followed by incubation at 37° C. for 30 minutes. Microtubules were pelleted at 100,000 g at 37° C for 30 minutes. The pellets were incubated on ice for 15 minutes, followed by resuspension in ice cold PEM buffer (100 mM Pipes/K+(pH 6.9), 1 mM EGTA, 1 mM MgCl2). This warm polymerization and cold depolymerization cycle was repeated once more and the cold, resuspended monomeric MTP (8-10 mg/ml protein) was used for the optical test for polymerization kinetics. Both rabbit or bovine brain yielded identical MTP preparations.
The composition of the optical test is described in the legends of Figures and Table 12. The polymerization reaction was started by the addition of 100 μl of MTP solution (equivalent to 0.8-1.0 mg protein) and initial linear rates of increase in absorbance at 350 nm followed and recorded at 37° C. (see FIG. 1) in a Perkin-Elmer 552 double beam spectrophotometer, equipped with a thermostatically controlled cuvette holder.
[…] Microtubule assembly at 37° C. was monitored at λ=350 nm and initial velocities were calculated as mA350 /min. […] The values are averages of duplicate assays.

Assay [3] relates to E-ras transformed bovine endothelial cells. The experiment in a line: Morphology of E-ras cells. In kind it is cell-based. The protocol: E-ras transformed bovine endothelial cells (Bauer et al., 1996, Intl. J. Oncology 8:239-252) were exposed to 10 μM DIME for […]. The DIME-treated cells (10^5 or 10^6 cells/100 μL) were injected subcutaneously into nude mice and tumor progression followed for 25 days.
Microscopic morphology of E-ras cells was examined by techniques reported earlier, Mendeleyev et al., 1997, "Structural Specificity and Tumoricidal Action of Methyl-3,5-Diiodo-4-(4'- Methoxyphenoxy) Benzoate (DIME)," Intl. J. Oncol.,in press; Bauer et al., 1996, "Modification of Growth Related Enzymatic Pathways and Apparent Loss of Tumorigenicity of a ras-Transformed Bovine Endothelial Cell Line" by Treatment With 5-iodo-6-amino-1,2-benzopyrone (INH BP).

Assay [4] concerns HeLa (cervical cancer). Put plainly: Cytocidal action/growth inhibition, HeLa. The following applies: Homo sapiens, 72 h. In kind it is cell-based. The protocol: Seven human cancer cell lines were obtained from the American Tissue Culture Collection (Rockville, Md.) and maintained in the recommended growth media. Cells were seeded into wells (2 cm^2) at a density of 2×10^4 cells/cm^2. Various concentrations of Compounds 1-13 were added to the media at the time of seeding.
The cultures were incubated for 72 hours at 37° C. (5% CO2 atmosphere). Following incubation, cells were detached with trypsin and counted in a hemocytometer.
I100 designates the concentration at which no viable cells remained; I50 the concentration at which 50% viable cells remained, as compared to a control.
(§2) E-ras 20 cells were cultured as reported, Bauer et al., 1996, "Modification of growth related enzymatic pathways and apparent loss of tumorigenicity of a ras-transformed bovine endothelial cell line by treatment with 5-iodo-6-amino-1,2-benzopyrone (INH2 BP)" Intl. J. Oncol. 8:239-252; HT-144 (melanoma), DU-145 (prostatic cancer), HeLa (cervical cancer), HL 60 (promyelocytic leukemia), MDA-MB-231 (mammary cancer), SK-Br-3 (mammary cancer), T47D (ductal mammary cancer), A559 (lung cancer) were obtained from American Type Culture Collection (Rockville, Md.) and cultured in prescribed media. The effect of DIME was tested in cultures with a starting cell density of 2×10^4 cells per cm^2 and comparison of the effect of DIME on cell growth (intact cells identified by Trypan blue exclusion) was assayed by direct cell counting after trypsinization in a hemocytometer 72 hours after drug addition.
(§3) For DIME-exposure experiments cells were seeded into 2 cm^2 wells at a density of 2×10^4 cells/cm^2. DIME at various concentrations was added to the medium at the time of seeding. The cell cultures were then incubated for 3 days (37° C. in 5% at CO2 atmosphere).

The test system of assay [5] is protein phosphatase 2A (DU-145). Put plainly: Phosphatase activity, DU-145. Format: cell-based, human. The protocol: as §1
Assay [6] relates to mouse pituitary thyrotropic tumors / non-malignant mouse pituitary adenoma. The following applies: cited from earlier work.
Assay [7] concerns E-ras 20 cells. The experiment in a line: Growth inhibition, E-ras 20. The following applies: Bos taurus, 72 h; day 3; Table 11; read-out: I50 (day 3). Format: cell-based, bovine. The method, then:
as §2, §3

The subject of assay [8] is E-ras cells. Put plainly: DNA cuts (TUNEL). The note with it: 2-10 μM, 18 hours. Format: cell-based, bovine. The protocol:
E-ras cells (2×10^4 cells/cm^2) were treated with DIME 18 hours prior to the TUNEL assay.
Assay for DNA cuts, as a signal for apoptosis, was via the terminal deoxynucleotidyl transferase dUTP nick end labeling (TUNEL) reaction as specified by the manufacturer of the assay kit (Boehringer Mannheim, Indianapolis, Ind., USA, Cat. No. 168-4817).

The term Km denotes the concentration of substrate that gives half-maximal velocity. Consider `COC(=O)c1cc(I)c(Oc2ccc(OC)cc2)c(I)c1` [Compound 1, Methyl 3,5-diiodo-4-(4'-methoxyphenoxy)benzoate], for which the “Phosphatase Activity” value is 44 ± 7 fmol Pi/mg protein × min in assay [1] (50 μM DIME, untreated 29 ± 5) and 19.1 ± 2.5 fmol Pi/mg protein × min in assay [5] (50 μM DIME, untreated 12.1 ± 3). Moreover, the “activation of protein phosphatase 2A, fold” value in assay [1] (50 μM, E-ras transformed cells) was “at least two-fold”; in assay [5] (50 μM, DU-145 cells) it was “at least two-fold”. The “decrease of Vmax” value in assay [2] (1 μM DIME) was approximately 50%. In addition, the “type of inhibition of MTP polymerization” value in assay [2] (1 μM DIME, versus GTP) is “"mixed" type inhibition”. Moreover, in assay [2] (1 μM DIME, 6.7 μM without drug, read-out: km GTP), the Km is 14 µM. In assay [2] (10 μM, 1 mM GTP, 37° C.), the “Percent inhibition of initial velocity of microtubule assembly” value came to 93%. Also, the “inhibition of GTP-dependent polymerization of MTP” value in assay [2] (1 to 5 μM) was “inhibits the GTP-dependent polymerization of MTP”. The cell morphology result in assay [3] (4 μM, 18-24 hrs, E-ras 20 cells) is given as “tumor cells enlarged and, as especially visible at 300-fold magnification, numerous micronuclei appeared”. Besides, the micronucleation entry in assay [3] (10 μM, 3 days) is given as “induced extensive micronucleation”. Besides, the IC50 in assay [4] (Table 4, read-out: I50) was 600 nM; in assay [4] (day 3, Table 11, read-out: I50 (day 3)), 600 nM; in assay [7], 1000 nM. Also, the IC100 in assay [4] (Table 4, read-out: I100 (no viable cells remained)) was 3.5 µM. The “growth of mouse pituitary tumor” value in assay [6] was “no inhibitory activity”. In assay [8], the DNA breaks entry was “drug concentration-dependent DNA breaks”.
